How the values were obtained:
mGluR1 receptor = target: T1, mGluR1 receptor (Rattus norvegicus, UniProt P23385); assay: FURA-2 [Ca2+]i imaging in HEK-293 cells with Gα15 and mGluR1 receptor; format: cell-based; details: 20 μM
T1 construct: expressed in transfected cells; host or cells: HEK-293 cells containing Gα15
Description: (§1) In this system, receptor activation leads to increases in intracellular calcium [Ca2+]i, which can be monitored at the single cell level using the FURA-2 calcium-indicator dye (Tsien et al., Cell Calcium 6:145-157 (1985)). To test and optimize Gα15 coupling, two different GPCRs, a Gαi-coupled μ-opioid receptor (Reisine, Neuropharm. 34:463-472 (1995)) and a Gαq-coupled mGluR1 receptor (Masu et al., Nature 349:760-765 (1991)), were used. Transfection of these receptors into HEK-293 cell produced robust, agonist-selective, and Gα15-dependent Ca^2+ responses (FIG. 1).

mT2R5 = target: T2, mT2R5 (Mus musculus, UniProt Q9JKT4); assay: FURA-2 [Ca2+]i imaging in HEK-293 cells expressing Gα15 and rho-mT2R5 (taster, DBA/2 allele); format: cell-based
T2 construct: expressed in transfected cells; host or cells: modified HEK-293 cells (PEAKrapid) expressing Gα15; pEAK10 vector
T2 sequence (Q9JKT4 1-300): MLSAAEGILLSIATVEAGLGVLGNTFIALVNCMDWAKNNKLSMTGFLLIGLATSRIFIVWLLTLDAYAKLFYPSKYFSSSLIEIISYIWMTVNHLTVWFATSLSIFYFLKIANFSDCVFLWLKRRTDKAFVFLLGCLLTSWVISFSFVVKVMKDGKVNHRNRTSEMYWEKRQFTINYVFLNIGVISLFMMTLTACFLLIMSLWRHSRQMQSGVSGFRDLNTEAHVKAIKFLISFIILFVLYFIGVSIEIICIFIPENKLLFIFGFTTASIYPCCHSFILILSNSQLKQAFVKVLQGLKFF
Description: as §1
(§2) A number of studies have shown that many GPCRs, in particular sensory receptors, require specific “chaperones” for maturation and targeting through the secretory pathway (Baker et al., Embo J 13:4886-4895 (1994); Dwyer et al., Cell 93:455-466 (1998)). Recently, Krautwurst et al. (Cell 95:917-926 (1998)) generated chimeric receptors consisting of the first 20 amino acids of rhodopsin and various rodent olfactory receptors. These were targeted to the plasma membrane and functioned as odorant receptors in HEK-293 cells. To determine whether rhodopsin sequences can also help target T2Rs to the plasma membra, rhodopsin-T2R chimeras (rho-T2Rs) were constructed. […] Similar results were obtained with 11 human and 16 rodent T2Rs (see below). To further enhance the level of T2R expression, rho-T2Rs were placed under the control of a strong EF-1α promoter, and introduced as episomal plasmids into modified HEK-293 cells expressing Gα15 (pEAKrapid cells).
(§3) A bridge overlap PCR extension technique was used to generate rho-T2R chimeras, which contain the first 39 amino acids of bovine rhodopsin in frame with human and rodent T2R coding sequences (Mehta and Singh, Biotechniques 26:1082-1086 (1999). All receptors were cloned into a pEAK10 mammalian expression vector (Edge Biosystems, MD). Modified HEK-293 cells (PEAK^rapid cells; Edge BioSystems, MD) were grown and maintained at 37° C. in UltraCulture medium (Bio Whittaker) supplemented with 5% fetal bovine serum, 100 μg/ml Gentamycin sulphate (Fisher), 1 μg/ml Amphotericin B and 2 mM GlutaMax I (Lifetechnologies). For transfection, cells were seeded onto matrigel coated 24-well culture plates or 35 mm recording chambers. After 24 h at 37° C., cells were washed in OptiMEM medium (Lifetechnologies) and transfected using LipofectAMINE reagent (Lifetechnologies). Transfection efficiencies were estimated by co-transfection of a GFP reporter plasmid, and were typically >70%. Immunofluoresence staining, and activity assays were performed 36-48 h after transfection.
(§4) Transfected cells were washed once in Hank's balanced salt solution with 1 mM sodium pyruvate and 10 mM HEPES, pH 7.4 (assay buffer), and loaded with 2 μM FURA-2 AM (Molecular Probes) for 1 h at room temperature. The loading solution was removed and cells were incubated in 200 μl of assay buffer for 1 h to allow the cleavage of the AM ester. For most experiments, 24-well tissue culture plates containing cells expressing a single rho-T2R were stimulated with 200 μl of a 2× tastant solution (see next section). [Ca^2+]i changes were monitored using a Nikon Diaphot 200 microscope equipped with a 10×/0.5 fluor objective with the TILL imaging system (T.I.L.L Photonics GmbH). Acquisition and analysis of the fluorescence images used TILL-Vision software. Generally, [Ca^2+]i was measured for 80-120 s by sequentially illuminating cells for 200 ms at 340 nm and 380 nm and monitoring the fluorescence emission at 510 nm using a cooled CCD camera. The F340/F380 ratio was analyzed to measure [Ca^2+]i.
(§5) Kinetics of activation and deactivation were measured using a bath perfusion system. Cells were seeded onto a 150 μl microperfusion chamber, and test solutions were pressure-ejected with a picospritzer apparatus (General Valve, Inc.). Flow-rate was adjusted to ensure complete exchange of the bath solution within 4-5 s. […]

hT2R4 = target: T3, hT2R4 (Homo sapiens, UniProt Q9NYW5); assay: FURA-2 [Ca2+]i imaging in HEK-293 cells expressing Gα15 and rho-hT2R4; format: cell-based; details: high concentrations
T3 construct: Full-length hT2Rs were isolated by PCR amplification of genomic DNA; expressed in transfected cells; host or cells: HEK-293 cells (PEAKrapid) expressing Gα15
T3 sequence (Q9NYW5 1-299): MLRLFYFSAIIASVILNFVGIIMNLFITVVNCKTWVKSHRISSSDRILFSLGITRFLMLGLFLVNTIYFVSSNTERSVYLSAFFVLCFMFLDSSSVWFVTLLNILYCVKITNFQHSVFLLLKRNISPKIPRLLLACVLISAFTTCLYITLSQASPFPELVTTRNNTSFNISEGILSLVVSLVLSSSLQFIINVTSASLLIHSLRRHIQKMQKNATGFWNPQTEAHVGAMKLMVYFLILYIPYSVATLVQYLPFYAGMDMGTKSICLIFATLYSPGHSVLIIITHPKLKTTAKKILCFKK
Description: as §1, §2, §3, §4, §5

mT2R8 = target: T4, mT2R8 (Mus musculus, UniProt Q9JKT3); assay: FURA-2 [Ca2+]i imaging in HEK-293 cells expressing Gα15 and rho-mT2R8; format: cell-based; details: high concentrations
T4 construct: expressed in transfected cells; host or cells: HEK-293 cells (PEAKrapid) expressing Gα15
T4 sequence (Q9JKT3 1-297): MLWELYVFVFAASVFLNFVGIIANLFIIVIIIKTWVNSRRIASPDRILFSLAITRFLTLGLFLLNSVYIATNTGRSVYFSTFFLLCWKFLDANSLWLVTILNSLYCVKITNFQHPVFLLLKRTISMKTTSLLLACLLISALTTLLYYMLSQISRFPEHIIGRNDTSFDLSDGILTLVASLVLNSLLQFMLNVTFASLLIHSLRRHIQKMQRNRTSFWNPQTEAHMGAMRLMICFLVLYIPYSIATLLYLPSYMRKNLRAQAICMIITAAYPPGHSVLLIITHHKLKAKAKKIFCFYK
Description: as §1, §2, §3
as §4, with “For most experiments, 24-well tissue culture plates containing cells expressing a single rho-T2R were stimulated with 200 μl of a 2× tastant solution (see next section).” left out
Kinetics of activation and deactivation were measured using a bath perfusion system. […]

[1] = target: T5, mT2R5 coupling to gustducin (Mus musculus, UniProt Q9JKT4); assay: Tastant-induced GTPγS binding to gustducin with insect cell membranes containing rho-mT2R5; format: biochemical; details: 1 mM
T5 construct: infectious Bacmid containing rhodopsin tagged mT2R5 (DBA/2-allele) was produced using the Bac-to-Bac system; rhodopsin tag (rho); made in house; host or cells: insect larval cells infected with recombinant Bacmid (Bac-to-Bac baculovirus system); membrane preparation
T5 sequence (Q9JKT4 1-300): T2 sequence (Q9JKT4 1-300)
Procedure: To investigate the selectivity of T2R-G-protein coupling, mT2R5 was chosen for study because its activation by cycloheximide recapitulates mouse taste responses. Rho-tagged mT2R5 and gustducin were prepared using a baculovirus expression system. mT2R5-containing membranes were incubated with various purified G-proteins, including gustducin, and measured tastant-induced GTP-γS binding (Hoon et al., Biochem J 309:629-636 (1995)). Specifically, infectious Bacmid containing rhodopsin tagged mT2R5 (DBA/2-allele) was produced using the Bac-to-Bac system (Lifetechnologies, MD). Insect larval cells were infected for 60 h with recombinant Bacmid and membranes were prepared as described previously (Ryba and Tirindelli, J Biol Chem, 270:6757-6767 (1995)). Peripheral proteins were removed by treatment with 8 M urea and membranes were resuspended in 10 mM HEPES pH7.5, 1 mM EDTA and 1 mM DTT. The expression of rho-mT2R5 was assessed by Western blot using mAb B6-30 and quantitated by comparison with known amounts of rhodopsin. Approximately 300 pmol of rho-mT2R5 could be obtained from 2×10^8 infected cells. Gustducin and Gβ1γ8 heterodimers were isolated as described previously (Hoon et al., Biochem J 309:629-636 (1995); Ryba and Tirindelli, J Biol Chem, 270:6757-6767 (1995)). Receptor-catalyzed exchange of GDP for GTPγS on gustducin and other G-protein α-subunits was measured in the presence of 10 nM rho-mT2R5, 100 μM GDP, and 20 μM Gβ1γ8. All measurements were made at 15-minute time points, and reflect the initial rate of GTPγS binding.

μ opioid receptor = target: T6, μ opioid receptor (Homo sapiens, UniProt P35372); assay: FURA-2 [Ca2+]i imaging in HEK-293 cells with Gα15 and μ opioid receptor; format: cell-based; details: 10 μM
T6 construct: expressed in transfected cells; host or cells: HEK-293 cells containing Gα15
T6 sequence (P35372 whole entry, species assumed): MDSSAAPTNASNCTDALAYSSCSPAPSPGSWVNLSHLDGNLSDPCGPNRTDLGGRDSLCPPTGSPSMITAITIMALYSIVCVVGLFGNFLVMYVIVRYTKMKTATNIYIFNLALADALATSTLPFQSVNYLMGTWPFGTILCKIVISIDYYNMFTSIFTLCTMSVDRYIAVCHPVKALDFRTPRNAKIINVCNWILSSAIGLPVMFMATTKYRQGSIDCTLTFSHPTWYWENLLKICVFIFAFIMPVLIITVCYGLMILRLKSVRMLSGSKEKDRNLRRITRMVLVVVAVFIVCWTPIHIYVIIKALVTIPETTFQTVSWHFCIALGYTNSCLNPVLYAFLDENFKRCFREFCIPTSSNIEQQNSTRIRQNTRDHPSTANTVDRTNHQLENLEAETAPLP
Description: as §1

T1 sequence (P23385 19-1199): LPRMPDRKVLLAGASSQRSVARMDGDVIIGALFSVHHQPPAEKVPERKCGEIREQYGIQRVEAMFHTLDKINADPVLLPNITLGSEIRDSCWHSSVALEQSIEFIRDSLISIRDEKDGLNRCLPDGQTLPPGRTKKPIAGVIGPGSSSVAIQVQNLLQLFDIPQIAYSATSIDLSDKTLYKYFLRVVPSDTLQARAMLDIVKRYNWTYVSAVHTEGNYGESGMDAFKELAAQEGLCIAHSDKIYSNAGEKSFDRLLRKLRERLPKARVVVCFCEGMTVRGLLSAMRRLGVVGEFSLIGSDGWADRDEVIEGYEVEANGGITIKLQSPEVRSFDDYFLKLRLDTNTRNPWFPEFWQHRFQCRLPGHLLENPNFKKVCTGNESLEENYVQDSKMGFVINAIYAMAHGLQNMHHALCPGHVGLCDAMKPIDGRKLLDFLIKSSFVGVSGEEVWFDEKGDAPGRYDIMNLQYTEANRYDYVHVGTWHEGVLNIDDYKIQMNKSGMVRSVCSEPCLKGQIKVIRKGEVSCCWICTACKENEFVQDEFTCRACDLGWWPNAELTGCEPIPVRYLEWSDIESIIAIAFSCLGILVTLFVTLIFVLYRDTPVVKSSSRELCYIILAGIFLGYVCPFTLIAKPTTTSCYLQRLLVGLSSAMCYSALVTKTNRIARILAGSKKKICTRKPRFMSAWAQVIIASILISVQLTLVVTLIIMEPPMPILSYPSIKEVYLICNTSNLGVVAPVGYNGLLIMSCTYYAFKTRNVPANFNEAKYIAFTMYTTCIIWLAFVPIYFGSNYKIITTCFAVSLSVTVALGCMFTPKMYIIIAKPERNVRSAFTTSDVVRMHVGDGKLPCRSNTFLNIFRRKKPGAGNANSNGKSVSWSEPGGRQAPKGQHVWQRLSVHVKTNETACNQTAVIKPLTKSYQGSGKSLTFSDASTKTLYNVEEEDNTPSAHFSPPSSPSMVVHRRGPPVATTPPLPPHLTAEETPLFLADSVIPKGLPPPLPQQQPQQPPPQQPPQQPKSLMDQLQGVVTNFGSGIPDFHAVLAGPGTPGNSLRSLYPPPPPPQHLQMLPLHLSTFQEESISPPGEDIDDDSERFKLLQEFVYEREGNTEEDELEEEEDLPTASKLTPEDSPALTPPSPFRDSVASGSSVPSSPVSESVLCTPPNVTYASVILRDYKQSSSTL

**Q.** For `N[C@@]1(C(=O)O)CC[C@H](C(=O)O)C1` (racemic) [ACPD, trans (±) 1-amino-1,3 cyclopentane dicarboxylic acid], which “[Ca2+]i response” value (mGluR1 receptor) is on record?
**A.** increase in [Ca2+]i

**Q.** For `CCCc1cc(=O)[nH]c(=S)[nH]1` [6-n-propyl thiouracil], which “[Ca2+]i response to tastant” value (mT2R5; 10 mM) is on record?
**A.** not observed

**Q.** What about the “[Ca2+]i response” value (hT2R4) of the same compound?
**A.** also responded

**Q.** And the receptor activation (mT2R8)?
**A.** activated

**Q.** What about the gustducin activation [1] of the same compound?
**A.** not

**Q.** How did the “[Ca2+]i response” value (μ opioid receptor) turn out when `C[C@@H](NC(=O)[C@@H](N)Cc1ccc(O)cc1)C(=O)NCC(=O)N(C)[C@@H](Cc1ccccc1)C(=O)NCCO` [DAMGO] was run?
**A.** increase in [Ca2+]i

**Q.** Which results are given for `CN1[C@@H]2CC[C@H]1C[C@@H](OC(=O)C(CO)c1ccccc1)C2` (stereo partly shown) [atropine]?
**A.** [Ca2+]i response to tastant (mT2R5; 5 mM): not observed; gustducin activation [1]: not

**Q.** Which results are given for `COc1cc2c(cc1OC)[C@@]13CCN4CC5=CCO[C@H]6CC(=O)N2[C@H]1[C@H]6[C@H]5C[C@H]43` [brucine]?
**A.** [Ca2+]i response to tastant (mT2R5; 5 mM): not observed; gustducin activation [1]: not

**Q.** `O=C(O)/C=C/c1ccc(O)c(O)c1` [caffeic acid] was tested. Which “[Ca2+]i response to tastant” value (mT2R5; 2 mM) did it give?
**A.** not observed

**Q.** With `Cn1c(=O)c2c(ncn2C)n(C)c1=O` [caffeine] as the compound, how does the gustducin activation [1] read?
**A.** not

**Q.** For `NC(=S)Nc1ccccc1` [phenyl thiocarbamide], which “[Ca2+]i response to tastant” value (mT2R5; 3 mM) is on record?
**A.** not observed

**Q.** What about the gustducin activation [1] of the same compound?
**A.** not

**Q.** Which gustducin activation [1] does the source give for `C=C[C@H]1C[N@@]2CC[C@H]1C[C@H]2[C@H](O)c1ccnc2ccc(OC)cc12` [quinine] here?
**A.** not

**Q.** With `O=C1NS(=O)(=O)c2ccccc21` [saccharin] as the compound, how does the “[Ca2+]i response to tastant” value (mT2R5; 10 mM) read?
**A.** not observed

**Q.** And the gustducin activation [1]?
**A.** not

**Q.** With `CC(=O)OC[C@H]1O[C@@](COC(C)=O)(O[C@H]2O[C@H](COC(C)=O)[C@@H](OC(C)=O)[C@H](OC(C)=O)[C@H]2OC(C)=O)[C@@H](OC(C)=O)[C@@H]1OC(C)=O` [sucrose octaacetate] as the compound, how does the “[Ca2+]i response to tastant” value (mT2R5; 3 mM) read?
**A.** not observed

**Q.** And the gustducin activation [1]?
**A.** not

From patent US9817000B2, “Method for identifying compounds that modulate a T2R taste receptor” (The Regents of the University of California, priority 1999, dated 2017)
